# Assay results reported in US9650379B2 (CHONG KUN DANG PHARMACEUTICAL CORP., priority 2013, dated 2017).
# What was measured:
# [1] = target: T1, HDAC6 human recombinant (Homo sapiens, UniProt Q9UBN7); experiment: Inhibition of HDAC6 activity (fluorimetric assay); format: biochemical; details: test concentrations 0.1, 1, 10, 100 and 1000 nM; 37° C., 60 minutes
# T1 construct: purchased Calbiochem 382180
# T1 sequence (Q9UBN7 1-1215): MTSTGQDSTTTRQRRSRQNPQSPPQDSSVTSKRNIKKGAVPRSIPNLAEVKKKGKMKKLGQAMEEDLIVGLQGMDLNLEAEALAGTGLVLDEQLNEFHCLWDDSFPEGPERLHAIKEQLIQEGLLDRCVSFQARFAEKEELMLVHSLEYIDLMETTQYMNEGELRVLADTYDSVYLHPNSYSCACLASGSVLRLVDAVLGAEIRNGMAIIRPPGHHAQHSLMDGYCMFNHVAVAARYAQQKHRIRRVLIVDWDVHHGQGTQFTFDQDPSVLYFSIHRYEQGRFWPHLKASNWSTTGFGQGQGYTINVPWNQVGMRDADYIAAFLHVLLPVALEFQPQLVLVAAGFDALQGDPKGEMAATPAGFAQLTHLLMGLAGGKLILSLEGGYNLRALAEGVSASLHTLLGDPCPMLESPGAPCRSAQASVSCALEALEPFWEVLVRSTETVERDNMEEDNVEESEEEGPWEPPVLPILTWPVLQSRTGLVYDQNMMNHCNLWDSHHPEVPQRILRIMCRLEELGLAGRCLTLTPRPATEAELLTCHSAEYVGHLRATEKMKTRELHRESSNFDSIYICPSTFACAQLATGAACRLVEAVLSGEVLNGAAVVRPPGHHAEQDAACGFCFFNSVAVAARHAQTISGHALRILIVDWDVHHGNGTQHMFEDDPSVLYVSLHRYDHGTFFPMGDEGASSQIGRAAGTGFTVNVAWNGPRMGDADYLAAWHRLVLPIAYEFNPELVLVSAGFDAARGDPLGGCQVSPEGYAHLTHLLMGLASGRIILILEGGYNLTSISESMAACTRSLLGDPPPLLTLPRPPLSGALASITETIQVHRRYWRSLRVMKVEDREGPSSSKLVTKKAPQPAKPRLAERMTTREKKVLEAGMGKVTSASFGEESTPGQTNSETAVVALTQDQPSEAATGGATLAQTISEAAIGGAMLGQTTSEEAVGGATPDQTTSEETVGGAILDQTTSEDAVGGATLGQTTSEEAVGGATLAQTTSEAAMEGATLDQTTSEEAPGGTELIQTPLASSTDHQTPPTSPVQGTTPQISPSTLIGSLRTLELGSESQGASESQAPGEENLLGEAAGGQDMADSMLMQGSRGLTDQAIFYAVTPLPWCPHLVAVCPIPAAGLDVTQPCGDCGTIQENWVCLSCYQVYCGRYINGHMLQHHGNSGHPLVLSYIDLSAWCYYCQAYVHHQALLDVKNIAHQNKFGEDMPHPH
# Description: (§1) Assays were performed using a HDAC1 fluorimetric drug discovery assay kit (Enzolifesciences: BML-AK511) and a HDAC6 human recombinant (Calbiochem: 382180). The assay mixture of the kit was treated with a test compound at concentrations of 100, 1000 and 10000 nM for HDAC1 assay and concentrations of 0.1, 1, 10, 100 and 1000 nM for HDAC6 assay. The treated assay mixture was allowed to react at 37° C. for 60 minutes, and then was treated with a developer and allowed to stand at 37° C. for 30 minutes, followed by quantification of the fluorescence.
# [2] = target: T2, HDAC1 (Homo sapiens, UniProt Q13547); experiment: Inhibition of HDAC1 activity (HDAC1 fluorimetric drug discovery assay kit); format: biochemical; details: test concentrations 100, 1000 and 10000 nM; 37° C., 60 minutes
# T2 construct: purchased Enzolifesciences BML-AK511
# Description: as §1
# T2 sequence (Q13547 whole entry): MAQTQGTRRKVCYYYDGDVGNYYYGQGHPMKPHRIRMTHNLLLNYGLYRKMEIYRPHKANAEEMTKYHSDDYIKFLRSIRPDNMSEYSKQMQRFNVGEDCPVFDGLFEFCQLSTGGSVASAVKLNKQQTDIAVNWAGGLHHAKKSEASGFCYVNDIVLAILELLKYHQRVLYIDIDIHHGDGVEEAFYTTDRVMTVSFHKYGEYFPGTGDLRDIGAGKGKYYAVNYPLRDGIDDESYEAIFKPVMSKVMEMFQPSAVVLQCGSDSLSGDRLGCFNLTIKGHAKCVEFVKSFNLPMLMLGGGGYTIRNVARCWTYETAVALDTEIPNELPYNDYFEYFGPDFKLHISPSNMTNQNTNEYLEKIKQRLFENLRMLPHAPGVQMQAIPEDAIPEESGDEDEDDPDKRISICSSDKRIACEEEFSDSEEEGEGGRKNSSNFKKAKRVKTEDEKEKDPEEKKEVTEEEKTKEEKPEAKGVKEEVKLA
SMILES,IC50 [1] [nM],IC50 [2] [nM]
O=C(NO)c1ccc(Cn2ccc3cc(-c4cccnc4)cnc32)cc1 [Compound 103],0.26,382
"O=C(NO)c1ccc(Cn2ccc3cc(-c4ccc(F)cc4)cnc32)cc1 [Compound 104, 4-((5-(4-fluorophenyl)-1H-pyrrolo[2,3-b]pyridin-1-yl)methyl)-N-hydroxybenzamide]",0.7,1670
"O=C(NO)c1ccc(Cn2ccc3cc(-c4cncnc4)cnc32)cc1 [Compound 124, N-hydroxy-4-((5-(pyrimidin-5-yl)-1H-pyrrolo[2,3-b]pyridin-1-yl)methyl)benzamide]",120,540
"O=C(NO)c1ccc(Cn2ccc3cc(-c4ccc(F)cc4F)cnc32)cc1 [Compound 125, 4-((5-(2,4-difluorophenyl)-1H-pyrrolo[2,3-b]pyridin-1-yl)methyl)-N-hydroxybenzamide]",52,1610
CC(C)(C)OC(=O)N1CCN(c2ccnc3c2ccn3Cc2ccc(C(=O)NO)cc2)CC1 [Compound 212],14,890
"CCN1CCN(c2ccnc3c2ccn3Cc2ccc(C(=O)NO)cc2)CC1 [Compound 223, 4-((4-(4-ethylpiperazin-1-yl)-1H-pyrrolo[2,3-b]pyridin-1-yl)methyl)-N-hydroxybenzamide]",7,380
"CN1CCN(c2ccnc3c2ccn3Cc2ccc(C(=O)NO)cc2)CC1 [Compound 224, N-hydroxy-4-((4-(4-methylpiperazin-1-yl)-1H-pyrrolo[2,3-b]pyridin-1-yl)methyl)benzamide]",2,180
"CC(C)N1CCN(c2ccnc3c2ccn3Cc2ccc(C(=O)NO)cc2)CC1 [Compound 225, N-hydroxy-4-((4-(4-isopropylpiperazin-1-yl)-1H-pyrrolo[2,3-b]pyridin-1-yl)methyl)benzamide]",3,410
"CC(C)(F)CN1CC=C(c2cnc3c(ccn3Cc3ccc(C(=O)NO)cc3)c2)CC1 [Compound 617, 4-((5-(1-(2-fluoro-2-methylpropyl)-1,2,3,6-tetrahydropyridin-4-yl)-1H-pyrrolo[2,3-b]pyridin-1-yl)methyl)-N-hydroxybenzamide]",9,4220
"CC(C)(F)CN1CCC(c2cnc3c(ccn3Cc3ccc(C(=O)NO)cc3)c2)CC1 [Compound 618, 4-((5-(1-(2-fluoro-2-methylpropyl)piperidin-4-yl)-1H-pyrrolo[2,3-b]pyridin-1-yl)methyl)-N-hydroxybenzamide]",16,1300
"O=C(NO)c1ccc(Cn2ccc3cc(C4=CCOCC4)cnc32)cc1 [Compound 629, 4-((5-(3,6-dihydro-2H-pyran-4-yl)-1H-pyrrolo[2,3-b]pyridin-1-yl)methyl)-N-hydroxybenzamide]",4,1050
"CC(C)(F)CN1CC=C(c2ccnc3c2ccn3Cc2ccc(C(=O)NO)cc2)CC1 [Compound 630, 4-((4-(1-(2-fluoro-2-methylpropyl)-1,2,3,6-tetrahydropyridin-4-yl)-1H-pyrrolo[2,3-b]pyridin-1-yl)methyl)-N-hydroxybenzamide]",8,1090

# Next, values leading:
IC50 [1] [nM],IC50 [2] [nM],SMILES
11,1170,"O=C(NO)c1ccc(Cn2ccc3cc(C4CCOCC4)cnc32)cc1 [Compound 635, N-hydroxy-4-((5-(tetrahydro-2H-pyran-4-yl)-1H-pyrrolo[2,3-b]pyridin-1-yl)methyl)benzamide]"
17,3050,"O=C(NO)c1ccc(Cn2ccc3cc(-c4ccccc4)cnc32)cc1 [Compound 645, N-hydroxy-4-((5-phenyl-1H-pyrrolo[2,3-b]pyridin-1-yl)methyl)benzamide]"
15,1170,"CN1CC=C(c2cnc3c(ccn3Cc3ccc(C(=O)NO)cc3)c2)CC1 [Compound 647, N-hydroxy-4-((5-(1-methyl-1,2,3,6-tetrahydropyridin-4-yl)-1H-pyrrolo[2,3-b]pyridin-1-yl)methyl)benzamide]"
18,3550,"O=C(NO)c1ccc(Cn2ccc3cc(C4=CCCCC4)cnc32)cc1 [Compound 648, 4-((5-(cyclohex-1-en-1-yl)-1H-pyrrolo[2,3-b]pyridin-1-yl)methyl)-N-hydroxybenzamide]"
93,7050,CC1(C)CC=C(c2cnc3c(ccn3Cc3ccc(C(=O)NO)cc3)c2)CC1 [Compound 649]
14,2300,"O=C(NO)c1ccc(Cn2ccc3cc(C4=CCC(F)(F)CC4)cnc32)cc1 [Compound 650, 4-((5-(4,4-difluorocyclohex-1-en-1-yl)-1H-pyrrolo[2,3-b]pyridin-1-yl)methyl)-N-hydroxybenzamide]"
16,1350,"O=C(NO)c1ccc(Cn2ccc3c(-c4ccccc4)ccnc32)cc1 [Compound 656, N-hydroxy-4-((4-phenyl-1H-pyrrolo[2,3-b]pyridin-1-yl)methyl)benzamide]"
9,470,"O=C(NO)c1ccc(Cn2ccc3c(-c4ccncc4)ccnc32)cc1 [Compound 657, N-hydroxy-4-((4-(pyridin-4-yl)-1H-pyrrolo[2,3-b]pyridin-1-yl)methyl)benzamide]"
21,1950,"O=C(NO)c1ccc(Cn2ccc3c(-c4ccc(F)cc4F)ccnc32)cc1 [Compound 658, 4-((4-(2,4-difluorophenyl)-1H-pyrrolo[2,3-b]pyridin-1-yl)methyl)-N-hydroxybenzamide]"
4,900,"O=C(NO)c1ccc(Cn2ccc3c(-c4cncnc4)ccnc32)cc1 [Compound 659, N-hydroxy-4-((4-(pyrimidin-5-yl)-1H-pyrrolo[2,3-b]pyridin-1-yl)methyl)benzamide]"
6,790,"Cn1ncc2ccc(-c3cnc4c(ccn4Cc4ccc(C(=O)NO)cc4)c3)cc21 [Compound 685, N-hydroxy-4-((5-(1-methyl-1H-indazol-6-yl)-1H-pyrrolo[2,3-b]pyridin-1-yl)methyl)benzamide]"
39,2740,"CC(C)(O)CN1CC=C(c2cnc3c(ccn3Cc3ccc(C(=O)NO)cc3)c2)CC1 [Compound 686, N-hydroxy-4-((5-(1-(2-hydroxy-2-methylpropyl)-1,2,3,6-tetrahydropyridin-4-yl)-1H-pyrrolo[2,3-b]pyridin-1-yl)methyl)benzamide]"
61,3230,"O=C(NO)c1ccc(Cn2ccc3cc(-c4cnc(O)nc4)cnc32)cc1 [Compound 687, N-hydroxy-4-((5-(2-hydroxypyrimidin-5-yl)-1H-pyrrolo[2,3-b]pyridin-1-yl)methyl)benzamide]"
5230,,"COc1ccc(CN2CCC(c3cnc4c(ccn4Cc4ccc(C(=O)NO)cc4)c3)CC2)cn1 [Compound 1098, N-hydroxy-4-((5-(1-((6-methoxypyridin-3-yl)methyl)piperidin-4-yl)-1H-pyrrolo[2,3-b]pyridin-1-yl)methyl)benzamide]"
1.8,,"COc1ccc(CN2CC3(CCN(c4cnc5c(ccn5Cc5ccc(C(=O)NO)cc5)c4)CC3)C2)cc1 [Compound 1125, N-hydroxy-4-((5-(2-(4-methoxybenzyl)-2,7-diazaspiro[3.5]nonan-7-yl)-1H-pyrrolo[2,3-b]pyridin-1-yl)methyl)benzamide]"
